Experimental data reported in PubChem BioAssay (NCI).
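Protocol summary: plate cells (96-well), add compound at 5 concentrations, incubate 48 h, interpolate endpoints linearly. TGI denotes the concentration required for complete inhibition of growth.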

Legend:
Test in all cases: inhibition of tumour cell growth, NCI panel, 48 h
DLD-1 colon = tested on: DLD-1 colon
DMS 114 small cell lung = tested on: DMS 114 small cell lung
HOP-18 NSCLC = tested on: HOP-18 NSCLC
LXFL 529 NSCLC = tested on: LXFL 529 NSCLC
M19-MEL melanoma = tested on: M19-MEL melanoma
RXF-631 renal = tested on: RXF-631 renal
SNB-78 CNS = tested on: SNB-78 CNS
DMS 273 small cell lung = tested on: DMS 273 small cell lung
XF 498 CNS = tested on: XF 498 CNS

SMILES	TGI (DLD-1 colon) [µM]	TGI (DMS 114 small cell lung) [µM]	TGI (HOP-18 NSCLC) [µM]	TGI (LXFL 529 NSCLC) [µM]	TGI (M19-MEL melanoma) [µM]	TGI (RXF-631 renal) [µM]	TGI (SNB-78 CNS) [µM]	TGI (DMS 273 small cell lung) [µM]	TGI (XF 498 CNS) [µM]
C[C@H](OCc1ccccc1)C(=O)N1CCS(=O)(=O)N2CCC[C@H]2C1=O	> 100	> 100	> 100	> 100	> 100	> 100	> 100	–	–
COc1cc(Cn2c3ccccc3c3cc(C)c4c(c32)C=CC(C)(CCC=C(C)C)O4)cc2c1[nH]c1ccccc12 (centres undefined)	> 100	> 100	> 100	> 100	> 100	–	> 100	> 100	–
NC(=O)N=C(N(Cc1ccccc1)Cc1ccccc1)N(Cc1ccccc1)Cc1ccccc1	> 100	–	–	> 100	> 100	–	> 100	> 100	–
C=CC/C=C/Cc1csc(C(C)(C)C(O)C/C=C/C(=C)CCNC(=O)OC)n1 (centres undefined)	> 100	2.91	–	> 100	> 100	–	–	> 100	> 100
CC1=C(C(=O)O)N2C(=O)[C@@H](NC(=O)C(c3ccc(O)cc3)N3CSC(=S)N(C(C)C)C3)C2SC1 (some centres undefined)	> 100	> 100	> 100	> 100	> 100	–	> 100	> 100	> 100
Cc1c(/C=N/NC(=O)c2cc(Br)cc(Br)c2O)c(=O)n(-c2ccccc2)n1C	> 100	88.8	–	> 100	> 100	–	> 100	> 100	37.9
Cn1cnc(CCc2ccccc2)n1	> 100	> 100	> 100	> 100	> 100	–	> 100	> 100	–
O=C1C(Br)=CC2(C=C1Br)CCNC1=C2C(=O)c2ccccc2C1=O	28.4	22.8	> 100	35.1	18.4	26.6	> 100	–	–
Cc1csc(=S)n1OC(=O)NC1CCCCC1	> 100	44.7	–	> 24	> 56.6	–	> 100	> 79.9	> 100
COc1cc(OC)c2c(c1)C(=O)C(CC(C)O)=CC2=O (centres undefined)	28.5	9.21	30.4	26.1	11.4	–	32	37.6	27
